This note sets out measurements from patent US20250066335A1, “POLYSUBSTITUTED 4-HYDROXYPYRIDINE AND 4-HYDROXYQUINOLINE DERIVATIVES AS GPR84 ANTAGONISTS” (UNIVERSITY OF COPENHAGEN, priority 2021, published 2025).

For orientation: IC50 means the midpoint of a concentration-inhibition curve. Higher therefore signals weaker potency in that assay.

The target in this experiment is T1, GPR84 (Homo sapiens, UniProt Q9NQS5).
T1 construct: expressed in transfected cells; host or cells: HTLA cells (HEK293 line stably expressing a tTA-dependent luciferase reporter and a β-arrestin2-TEV fusion gene), transiently transfected with PEI
As to the kind of experiment: PRESTO-Tango β-arrestin2 recruitment assay, GPR84 antagonistic activity. It is filed as cell-based. The settings on record: antagonist activity in the Presto-TANGO assay; inhibition of the response from the agonist ZQ-16 (100 nM); HTLA cells. The method, then: PRESTO-Tango β-arrestin recruitment assay (W.K. Kroeze et al., 2015). HTLA cells (a HEK293 cell line stably expressing a tTA-dependent luciferase reporter and a β-arrestin2-TEV fusion gene) were maintained in Dulbecco's Modified Eagle's Medium (DMEM) supplemented with 10% Fetal Bovine Serum (dFBS), 100 U/mL penicillin and 100 μg/mL streptomycin, 2 μg/mL puromycin and 100 μg/mL hygromycin B in a humidified atmosphere at 37° C. in 5% CO2. For transfection, cells were plated at 9×10^6 to 10×10^6 cells per 15-cm cell-culture dish (day 1). The following day (day 2), cells were transfected by adding 5 μg DNA and 15 μg polyethylenimine (PEI) diluted in 1 mL Opti-MEM (Reduced Serum Medium supplied by ThermoFisher). On day 3, transfected cells were transferred at 25000 cells per well in 40 μl of medium into poly-l-lysine-coated and rinsed 384-well white, clear-bottomed cell-culture plates (Greiner Bio-One). On day 4, dilutions of the ligands to be tested were prepared in 1% dFBS DMEM and 10 μL were added to each well. On day 5, 20 μl per well of Bright-Glo solution (Promega) diluted 10-fold in assay buffer (Hanks' Balanced Salt Solution [HBSS], 20 mM HEPES, 1 mM CaCl2, 1 mM MgCl2, pH adjusted to 7.4 by 5 M NaOH) was added to each well. After incubation for 20 min at room temperature, luminescence was counted in an Enspire luminescence counter at 384 nm. Results in the form of relative luminescence units (RLU) were exported into Excel spreadsheets, and GraphPad Prism was used for analysis of data. To measure constitutive activity, no ligand was added on day 4.
The GPR84 antagonistic activity of the compounds was determined using the PRESTO-Tango β-arrestin2 recruitment assay (Assay I, see assays above), from which the concentration of each compound required for 50% inhibition (IC50) of the response from the agonist ZQ-16 (100 nM) was determined. The antagonistic activity for each compound is given in Table 1 as the pIC50, which is the negative log of the IC50 value when converted to molar.
(In general: Activated receptors often draw arrestin, which recruitment assays turn into a signal.)

SMILES strings stand for the structures. Structures can show the parent of a compound that is named as a salt.

T1 sequence (Q9NQS5 whole entry, the tested form may be a part): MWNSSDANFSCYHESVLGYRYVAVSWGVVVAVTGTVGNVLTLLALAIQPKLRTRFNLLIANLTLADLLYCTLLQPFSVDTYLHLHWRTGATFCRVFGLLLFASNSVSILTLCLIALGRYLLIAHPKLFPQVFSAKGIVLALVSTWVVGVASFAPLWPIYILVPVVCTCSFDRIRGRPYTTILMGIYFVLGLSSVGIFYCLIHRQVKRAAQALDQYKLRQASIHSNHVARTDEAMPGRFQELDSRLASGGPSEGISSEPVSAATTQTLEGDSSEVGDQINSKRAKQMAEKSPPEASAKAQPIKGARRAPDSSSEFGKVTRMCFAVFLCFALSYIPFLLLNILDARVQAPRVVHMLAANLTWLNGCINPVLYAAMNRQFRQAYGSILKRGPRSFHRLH

Molecule `CCCc1ccc(CCc2nc(OCC3CCCCO3)cc(O)c2-c2ccc(OCC(=O)O)cc2)cc1` (centres unmarked) [Example 19, 2-(4-(4-Hydroxy-2-(4-propylphenethyl)-6-((tetrahydro-2H-pyran-2-yl)methoxy)pyridin-3-yl)phenoxy)acetic acid] had an IC50 of 93.3 nM.

Molecule `CCOc1ccc(CCc2nc(OC[C@@H]3COCCO3)cc(O)c2C)cc1` [Example 24, (S)-6-((1,4-dioxan-2-yl)methoxy)-2-(4-ethoxyphenethyl)-3-methylpyridin-4-ol] gave an IC50 of 1.07 nM. To `CCCc1ccc(CCc2nc(OCC3COCCO3)cc(O)c2C)cc1` (centres unmarked) [Example 22, 6-((1,4-Dioxan-2-yl)methoxy)-3-methyl-2-(4-propylphenethyl)pyridin-4-ol] belongs 3.02 nM; to `CCc1c(O)cc(OCC2COCCO2)nc1CCc1ccc(OCCOc2ccccc2)cc1` (centres unmarked) [Example 38, 6-((1,4-Dioxan-2-yl)methoxy)-3-ethyl-2-(4-(2-phenoxyethoxy)phenethyl)pyridin-4-ol], 0.2 nM. In the case of `CCCc1ccc(CCc2nc(OCC3CCCCO3)cc(O)c2-c2ccc(OCC(=O)OC)cc2)cc1` (centres unmarked) [Example 18, Methyl 2-(4-(4-hydroxy-2-(4-propylphenethyl)-6-((tetrahydro-2H-pyran-2-yl)methoxy)pyridin-3-yl)phenoxy)acetate] it was 148 nM; in that of `CCCCc1ccc(-c2nc(OC[C@@H]3COCCO3)cc(O)c2CC)cc1` [Example 57, (S)-6-((1,4-dioxan-2-yl)methoxy)-2-(4-butylphenyl)-3-ethylpyridin-4-ol], 120 nM; in that of `CCOc1ccc(CCc2nc(OCC3COCCO3)cc(O)c2CC)cn1` (centres unmarked) [Example 49, 6-((1,4-Dioxan-2-yl)methoxy)-2-(2-(6-ethoxypyridin-3-yl)ethyl)-3-ethylpyridin-4-ol], 0.501 nM. Molecule `CC(=O)NCCOc1ccc(CCc2nc(OCC3COCCO3)cc(O)c2C)cc1` (centres unmarked) [Example 31, N-(2-(4-(2-(6-((1,4-dioxan-2-yl)methoxy)-4-hydroxy-3-methylpyridin-2-yl)ethyl)phenoxy)ethyl)acetamide] gave an IC50 of 17.8 nM. `CCOC(=O)COc1ccc(CCc2nc(OCC3COCCO3)cc(O)c2C)cc1` (centres unmarked) [Example 28, Ethyl 2-(4-(2-(6-((1,4-dioxan-2-yl)methoxy)-4-hydroxy-3-methylpyridin-2-yl)ethyl)phenoxy)acetate] showed an IC50 of 11.2 nM. Molecule `CCCc1ccc(CCc2nc(OCC3CCCCO3)cc(O)c2C(C)C)cc1` (centres unmarked) [Example 8, 3-Isopropyl-2-(4-propylphenethyl)-6-((tetrahydro-2H-pyran-2-yl)methoxy)pyridin-4-ol] gave an IC50 of 81.3 nM. `CCc1c(O)cc(OCC2COCCO2)nc1CCc1ccc(OCc2nc(C)no2)cc1` (centres unmarked) [Example 40, 6-((1,4-Dioxan-2-yl)methoxy)-3-ethyl-2-(4-((3-methyl-1,2,4-oxadiazol-5-yl)methoxy)phenethyl)pyridin-4-ol] had an IC50 of 2.95 nM.

`CCCc1ccc(CCc2nc(OCC3CCCCO3)cc(O)c2C)cc1` (centres unmarked) [Example 2, 3-Methyl-2-(4-propylphenethyl)-6-((tetrahydro-2H-pyran-2-yl)methoxy)pyridin-4-ol]: the half-maximal inhibitory concentration (IC50) is 1.32 nM. `Cc1c(O)cc(OCC2COCCO2)nc1CCc1ccc(OCCNC(=O)OC(C)(C)C)cc1` (centres unmarked) [Example 27, Tert-butyl (2-(4-(2-(6-((1,4-dioxan-2-yl)methoxy)-4-hydroxy-3-methylpyridin-2-yl)ethyl)phenoxy)ethyl)carbamate] showed an IC50 of 0.282 nM. `CCOc1ccc(C2CC2c2nc(OCC3COCCO3)cc(O)c2CC)cc1` (centres unmarked) [Example 51, 6-((1,4-Dioxan-2-yl)methoxy)-2-(2-(4-ethoxyphenyl)cyclopropyl)-3-ethylpyridin-4-ol]: the IC50 was 87.1 nM. Molecule `CCc1c(O)cc(OC[C@@H]2COCCO2)nc1CCc1ccc(OC)c(C#N)c1` [Example 54, (S)-5-(2-(6-((1,4-dioxan-2-yl)methoxy)-3-ethyl-4-hydroxypyridin-2-yl)ethyl)-2-methoxybenzonitrile] gave an IC50 of 1.55 nM.

For `CCCc1ccc(CCc2nc(OCC3CCCCO3)cc(O)c2-c2ccccc2C)cc1` (centres unmarked) [Example 9, 2-(4-Propylphenethyl)-6-((tetrahydro-2H-pyran-2-yl)methoxy)-3-(o-tolyl)pyridin-4-ol], the IC50 was 389 nM. In the case of `CCc1c(O)cc(OCC2COCCO2)nc1CCc1ccc(OCCOCCNC(=O)OC(C)(C)C)cc1` (centres unmarked) [Example 34, tert-Butyl (2-(2-(4-(2-(6-((1,4-dioxan-2-yl)methoxy)-3-ethyl-4-hydroxypyridin-2-yl)ethyl)phenoxy)ethoxy)ethyl)carbamate], the IC50 is 0.331 nM.

`CCCc1ccc(CCc2nc(OCC3CCCCO3)cc(O)c2-c2ccccc2)cc1` (centres unmarked) [Example 3, 3-Phenyl-2-(4-propylphenethyl)-6-((tetrahydro-2H-pyran-2-yl)methoxy)pyridin-4-ol]: the IC50 was 85.1 nM.

With `CCOc1ccc(CCc2nc(OCC3COCCO3)cc(O)c2C)cc1` (centres unmarked) [Example 23, 6-((1,4-Dioxan-2-yl)methoxy)-2-(4-ethoxyphenethyl)-3-methylpyridin-4-ol], the IC50 is 3.31 nM. The molecule `CCCc1ccc(CCc2nc(OCC3CCCCO3)cc(O)c2CC)cc1` (centres unmarked) [Example 6, 3-Ethyl-2-(4-propylphenethyl)-6-((tetrahydro-2H-pyran-2-yl)methoxy)pyridin-4-ol] had an IC50 of 2.14 nM.

As to `CCOc1ccc(CCc2nc(OCC3CCCCO3)cc(O)c2C#N)cc1` (centres unmarked) [Example 4, 2-(4-Ethoxyphenethyl)-4-hydroxy-6-((tetrahydro-2H-pyran-2-yl)methoxy)nicotinonitrile], the IC50 is 145 nM. Take `CCCc1ccc(CCc2nc(OCC3CCCCO3)cc(O)c2Br)cc1` (centres unmarked) [Example 1, 3-bromo-2-(4-propylphenethyl)-6-((tetrahydro-2H-pyran-2-yl)methoxy)pyridin-4-ol]: the IC50 is 3.02 nM. In the case of `CCc1c(O)cc(OCC2COCCO2)nc1CCc1ccc(OCCCNC(=O)OC(C)(C)C)cc1` (centres unmarked) [Example 33, tert-Butyl (3-(4-(2-(6-((1,4-dioxan-2-yl)methoxy)-3-ethyl-4-hydroxypyridin-2-yl)ethyl)phenoxy)propyl)carbamate] it was 0.302 nM; in that of `CCCc1ccc(CCc2nc(OCC3CCCCO3)cc(O)c2-c2ccc(C)cc2)cc1` (centres unmarked) [Example 10, 2-(4-Propylphenethyl)-6-((tetrahydro-2H-pyran-2-yl)methoxy)-3-(p-tolyl)pyridin-4-ol], 66.1 nM; in that of `CCc1c(O)cc(OCC2COCCO2)nc1CCc1ccc(OCCCS(C)(=O)=O)cc1` (centres unmarked) [Example 39, 6-((1,4-Dioxan-2-yl)methoxy)-3-ethyl-2-(4-(3-(methylsulfonyl)propoxy)phenethyl)pyridin-4-ol], 0.871 nM. Take `CCc1c(O)cc(OCC2COCCO2)nc1CCc1ccc(OCc2nc(C(=O)O)co2)cc1` (centres unmarked) [Example 48, 2-((4-(2-(6-((1,4-Dioxan-2-yl)methoxy)-3-ethyl-4-hydroxypyridin-2-yl)ethyl)phenoxy)methyl)oxazole-4-carboxylic acid]: the IC50 was 5.37 nM. In the case of `CCc1c(O)cc(OCC2COCCO2)nc1CCc1ccc(OCCCN)cc1` (centres unmarked) [Example 46, 6-((1,4-Dioxan-2-yl)methoxy)-2-(4-(3-aminopropoxy)phenethyl)-3-ethylpyridin-4-ol hydrochloride] it was 0.832 nM; in that of `CCc1c(O)cc(OCC2COCCO2)nc1CCc1ccc(O)cc1` (centres unmarked) [Example 43, 6-((1,4-dioxan-2-yl)methoxy)-3-ethyl-2-(4-hydroxyphenethyl)pyridin-4-ol], 1.07 nM; in that of `CCCc1ccc(CCc2nc(OCC3CCCCO3)cc(O)c2-c2ccc(O)cc2)cc1` (centres unmarked) [Example 17, 3-(4-Hydroxyphenyl)-2-(4-propylphenethyl)-6-((tetrahydro-2H-pyran-2-yl)methoxy)pyridin-4-ol], 93.3 nM. In turn, `CCCc1ccc(CCc2nc(OCC3CCCCO3)cc(O)c2-c2ccc(CC)cc2)cc1` (centres unmarked) [Example 16, 3-(4-Ethylphenyl)-2-(4-propylphenethyl)-6-((tetrahydro-2H-pyran-2-yl)methoxy)pyridin-4-ol] had an IC50 of 70.8 nM. To `Cc1c(O)cc(OCC2COCCO2)nc1CCc1ccc(OCC(=O)O)cc1` (centres unmarked) [Example 30, 2-(4-(2-(6-((1,4-Dioxan-2-yl)methoxy)-4-hydroxy-3-methylpyridin-2-yl)ethyl)phenoxy)acetic acid] belongs 1290 nM; to `CCCc1ccc(CCc2nc(OCC3CCCCO3)cc(O)c2CCC(=O)OCC)cc1` (centres unmarked) [Example 13, Ethyl 3-(4-hydroxy-2-(4-propylphenethyl)-6-((tetrahydro-2H-pyran-2-yl)methoxy)pyridin-3-yl)propanoate], 13.2 nM.
